Data: patent US20020132855A1, “Use of acetaminophen to prevent and treat arteriosclerosis” (priority 2000, published 2002)

How the values were obtained:
isolated LDL [1] = assay: Dienes analysis of copper-mediated oxidation of isolated LDL; set-up: species or system New Zealand white rabbits; settings: 0.1 mg/ml LDL from APAP-fed rabbits, 5 μM CuSO4, 37° C., 6 hour period, FIG. 1
Procedure: LDL Isolation: Plasma LDL was prepared by ultracentrifuation of a blood sample as disclosed in Havel, “The Distribution and Chemical Composition of Ultracentrifugally Separated Lpoproteins in Human Serum,” 34 JI. Clin. Inv. 1345 […], within a density cutoff of 1.020 g/ml to 1.055 g/ml and with the addition of 0.5 mg/ml ethylenediaminetetracetic acid ('EDTA') thereto. After adding a sample of this mixture to a semi-permable bag, the LDL was dialyzed therefrom against a vacuum-degassed 0.01 M Tris solution containing 0.15 M NaCl and 0.1 mg/ml EDTA under dark conditions and at 4° C. for 48 hours, followed by dialysis overnight using the same equipment but with a 0.01M phosphate buffer solution containing 0.15 M NaCl and no EDTA. The dialyzed LDL protein concentrations were then determined via the method set forth in Lowry, 'Protein Measurement with the Folin Phenol Reagent,' 226 J. Biol. Chem. 497-509 (1951). […] Analysis: The kinetics of these copper-mediated oxidation reactions were followed at 10 minute intervals for a total period of 6 hours by monitoring changes in absorbance at 234 nm of each mixture using a Model UV-2101PC spectrophotometer available from Shimadzu. […]

isolated LDL [2] = assay: TBARS analysis of copper-mediated oxidation of isolated LDL; set-up: species or system New Zealand white rabbits; settings: 0.1 mg/ml LDL from APAP-fed rabbits, 5 μM CuSO4, 37° C., 4, 8 and 12 hours
Procedure: LDL Isolation: Plasma LDL was prepared by ultracentrifuation of a blood sample as disclosed in Havel, “The Distribution and Chemical Composition of Ultracentrifugally Separated Lpoproteins in Human Serum,” 34 JI. Clin. Inv. 1345 […], within a density cutoff of 1.020 g/ml to 1.055 g/ml and with the addition of 0.5 mg/ml ethylenediaminetetracetic acid (‘EDTA’) thereto. After adding a sample of this mixture to a semi-permable bag, the LDL was dialyzed therefrom against a vacuum-degassed 0.01 M Tris solution containing 0.15 M NaCl and 0.1 mg/ml EDTA under dark conditions and at 4° C. for 48 hours, followed by dialysis overnight using the same equipment but with a 0.01M phosphate buffer solution containing 0.15 M NaCl and no EDTA. The dialyzed LDL protein concentrations were then determined via the method set forth in Lowry, ‘Protein Measurement with the Folin Phenol Reagent,’ 226 J. Biol. Chem. 497-509 (1951). […] The concentrations of thiobarbituric acid reactive substances (“TBARS”) in each mixture were then measured with the same spectrophotometer as described by Streinbrecher, et al., “Decrease in reactive amino groups during oxidation or endothelial cell modification of LDL,” Arteriosclerosis 1987;7:135-143.

[3] = Total plasma cholesterol levels in cholesterol-fed rabbits; type: in vivo, New Zealand white rabbits
Source text: Twenty-three, six-week old male New Zealand white rabbits obtained from Myrtle's Rabbitry (Houston, Tex.) and weighing between about 1.8 kg and 2 kg were separated into two groups: Group 1 (experimental) having 12 rabbit/group and Group 2 (control) having 11 rabbits/group. At the beginning of the study, all rabbits were allowed water ad libitum and ate normal rabbit chow. After a two week acclimatization period, all of the rabbits were then placed on normal rabbit chow supplemented with 1% cholesterol (ICN Biochemicals, Inc., Costa Mesa, Calif.), in order to induce fatty streak formation in their blood vessel walls. Rabbits in Group 1 were switched from water to an acetaminophen solution for about a 40 mg/kgrabbit APAP dose. A 40 mg/kg dose of APAP in a 2.5 kg rabbit is equivalent to about a 2800 mg/day dose in a 70 kg human. The other group of rabbits remained on water for the remainder of the study. The cages were monitored daily in order to assure that each rabbit consumed the contents of his respective water bottle. After cannulating the femoral artery and advancing into the distal aorta region of each rabbit, blood was aspirated therefrom for isolation of LDL fraction. The blood of each rabbit was drawn into 1000 U of Heparin sodium in order to prevent coagulation, then the plasma was separated therefrom via centrifugation at 2000 rpm for ten minutes. […]

[4] = system: fatty streaks in the blood vessels of rabbits; assay: Fatty streak formation in aorta of cholesterol-fed rabbits; type: in vivo, New Zealand white rabbits; settings: rabbits on 1% cholesterol chow, 12 weeks
Source text: This investigation used an experimental system in which fatty streaks are induced in the blood vessels of rabbits by incorporation of 1 % cholesterol in their food. For further detail, see A. A. Taylor and C. V. Smith, Circulation 18 I-697 (1999). Similar experimental systems have been used previously for the evaluation of the efficacy of pharmaceutical compounds for treating, preventing, and regressing atherosclerosis. For example, see Daugherty, A., et al., “Probucol Attentuates the Development of Aortic Atherosclerosis in Cholesterol-Fed Rabbits,” 98(2) Br. J. Pharm. 612-18 (1989), which is incorporated by reference herein.
(§1) Twenty-three, six-week old male New Zealand white rabbits obtained from Myrtle's Rabbitry (Houston, Tex.) and weighing between about 1.8 kg and 2 kg were separated into two groups: Group 1 (experimental) having 12 rabbit/group and Group 2 (control) having 11 rabbits/group. At the beginning of the study, all rabbits were allowed water ad libitum and ate normal rabbit chow.
After a two week acclimatization period, all of the rabbits were then placed on normal rabbit chow supplemented with 1% cholesterol (ICN Biochemicals, Inc., Costa Mesa, Calif.), in order to induce fatty streak formation in their blood vessel walls. […] The cages were monitored daily in order to assure that each rabbit consumed the contents of his respective water bottle. […]

[5] = system: low density lipoprotein (LDL); settings: literature report; cited from earlier work
oxysterols in LDL = assay: Oxysterol concentrations in LDL isolated from cholesterol-fed rabbits; type: in vivo, New Zealand white rabbits
Procedure: LDL Isolation: Plasma LDL was prepared by ultracentrifuation of a blood sample as disclosed in Havel, “The Distribution and Chemical Composition of Ultracentrifugally Separated Lpoproteins in Human Serum,” 34 JI. Clin. Inv. 1345 […], within a density cutoff of 1.020 g/ml to 1.055 g/ml and with the addition of 0.5 mg/ml ethylenediaminetetracetic acid (‘EDTA’) thereto. After adding a sample of this mixture to a semi-permable bag, the LDL was dialyzed therefrom against a vacuum-degassed 0.01 M Tris solution containing 0.15 M NaCl and 0.1 mg/ml EDTA under dark conditions and at 4° C. for 48 hours, followed by dialysis overnight using the same equipment but with a 0.01M phosphate buffer solution containing 0.15 M NaCl and no EDTA. The dialyzed LDL protein concentrations were then determined via the method set forth in Lowry, ‘Protein Measurement with the Folin Phenol Reagent,’ 226 J. Biol. Chem. 497-509 (1951).
as §1
After a two week acclimatization period, all of the rabbits were then placed on normal rabbit chow supplemented with 1% cholesterol (ICN Biochemicals, Inc., Costa Mesa, Calif.), in order to induce fatty streak formation in their blood vessel walls. Rabbits in Group 1 were switched from water to an acetaminophen solution for about a 40 mg/kgrabbit APAP dose. A 40 mg/kg dose of APAP in a 2.5 kg rabbit is equivalent to about a 2800 mg/day dose in a 70 kg human. The other group of rabbits remained on water for the remainder of the study. The cages were monitored daily in order to assure that each rabbit consumed the contents of his respective water bottle.
Oxo-sterol concentrations in the isolated LDL were also determined by the method set forth in Hughes, et. al., “Cytotoxicity of Oxidized LDL to Porcine Aortic Smooth Muscle Cells Is Associated with the Oxysterols 7-ketocholesterol and 7-hydrocholesterol,” 14(7) Arterioscler. Thromb. 1177-85 (1994). In general, the oxysterols were initially separated from the LDL via a Bligh and Dyer extraction followed by extraction using amino-propyl solid phase extraction columns available from Varian Instruments in order to further separate the lipids by polarity. The oxysterol-containing eluents were then dried therefrom under a nitrogen atmosphere and derivatized with N,O-bis(trimethylsilyl)trifluooroacetamide) (“BSTFA”) in a test tube. 10 μl of cholestane was added to the dried eluent at the time of derivatization as an internal standard. The derivatized samples were then analyzed using a gas chromatograph column having a flame ionization detector .The column program included initial temperature of 250° C. for 2 minutes, followed by temperature increases of 8° C./minute to 325° C., and then a final 8 minute temperature hold at 325° C. The amount of oxysterols in the LDL were then quantitated using known standards by ratio of the peak area of the oxysterol to cholestane. The concentrations of oxysterols are set forth below in Table B: […]

[6] = APAP-fed versus control rabbits

What does the source list for `CC(=O)Nc1ccc(O)cc1` [APAP, N-(4-hydroxyphenyl) acetamide]?
Absorbance at 234 nm of isolated LDL (dienes) versus control (isolated LDL [1]): lower absorbance values; TBARS formed during the LDL oxidation versus control (isolated LDL [2]): comparable; Average Circulating total Plasma Cholesterol Level ([3]; APAP-fed rabbits, 1% cholesterol chow, 12 weeks, control 1441 ± 87): 1592 ± 43 mg/dL; Amount of circulating cholesterol in the blood plasma versus control [3, 6]: did not produce a significant difference; Average Fatty Streak/Total Aortic Area ([4]; about 40 mg/kg APAP in drinking water, control 0.58 + 0.06): 0.32 + 0.05; Aortic fatty streak areas versus control ([4]; about 40 mg/kg APAP, p<0.001): significantly reduced aortic fatty streak areas; LDL lipid oxidation in vitro [5]: prevent low density lipoprotein (“LDL”) lipid oxidation in vitro; Average 5b, 6b-epoxide concentration in LDL (oxysterols in LDL; APAP-fed rabbits, 1% cholesterol chow, 12 weeks, control 0.24 + 0.05): 0.12 + 0.13 nmol/mg LDL; Average 5a, 6a-epoxide concentration in LDL (oxysterols in LDL; APAP-fed rabbits, 1% cholesterol chow, 12 weeks, control 0.49 + 0.08): 0.11 + 0.05 nmol/mg LDL; Average 7bOH-cholesterol concentration in LDL (oxysterols in LDL; APAP-fed rabbits, 1% cholesterol chow, 12 weeks, control 1.01 + 0.26): 0.32 + 0.07 nmol/mg LDL; Average 7aOH-cholesterol concentration in LDL (oxysterols in LDL; APAP-fed rabbits, 1% cholesterol chow, 12 weeks, control 2.31 + 0.62): 0.58 + 0.12 nmol/mg LDL; Average 7keto-cholesterol concentration in LDL (oxysterols in LDL; APAP-fed rabbits, 1% cholesterol chow, 12 weeks, control 3.86 + 1.72): 0.41 + 0.14 nmol/mg LDL; Decrease in 7-alpha hydroxycholesterol values (oxysterols in LDL; [6]): 4 fold; Decrease in 7-beta hydroxycholesterol values (oxysterols in LDL; [6]): 3 fold; Decrease in 7-keto cholesterol values (oxysterols in LDL; [6]): 9 fold
